Measurements taken from patent US20060069132A1, “Azolecarboxamide herbicides” (priority 2004, published 2006).

Assays:
giant foxtail [1] = assay: Test B pre-/postemergence herbicide test; assay type: in vivo, Setaria faberi; conditions: for Foxtail, Giant plant response rating: postemergence
In short: (§1)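 Herbicidal effect was judged by eye on a 0–100 scale after plants stood 13 to 15 days in the greenhouse following pre- or postemergence treatment with surfactant-containing formulations.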

pigweed = assay: Test B pre-/postemergence herbicide test; assay type: in vivo, Amaranthus retroflexus; conditions: for Pigweed plant response rating: postemergence
In short: as §1

large crabgrass [2] = assay: Test B pre-/postemergence herbicide test; assay type: in vivo, Digitaria sanguinalis; conditions: for Crabgrass, Large plant response rating: postemergence
In short: as §1

cocklebur = assay: Test B pre-/postemergence herbicide test; assay type: in vivo, Xanthium strumarium; conditions: for Cocklebur plant response rating: postemergence
In short: (§2)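 Seeds were planted and treated preemergence with compounds formulated in a non-phytotoxic solvent mixture containing surfactant, while plants at the 1- to 4-leaf stage (2 to 18 cm) received postemergence sprays. Flooded paddy plants were grown to the 2-leaf stage. After 13 to 15 days in a greenhouse, injury was visually rated 0–100 against untreated controls.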

redroot pigweed = assay: Test A pre-/postemergence herbicide test; assay type: in vivo, Amaranthus retroflexus
In short: (§3)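 Seeds sown in sandy loam received a preemergence directed soil spray of compound in non-phytotoxic solvent with surfactant; postemergence plants (2–10 cm, one- to two-leaf stage) were sprayed to runoff at the same time. After ~10 days in greenhouse, injury was rated visually versus untreated controls (0 = no effect, 100 = complete control).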

rice [3] = assay: Test B pre-/postemergence herbicide test; assay type: in vivo, Oryza sativa; conditions: 0 = no effect, 100 = complete control, preemergence
In short: as §1

barnyardgrass [4] = assay: Test A pre-/postemergence herbicide test; assay type: in vivo, Echinochloa crus-galli
In short: as §3

morningglory [5] = assay: Test A pre-/postemergence herbicide test; assay type: in vivo, Ipomoea spp.
In short: as §3

barnyardgrass [6] = assay: Test B flooded paddy test; assay type: in vivo, Echinochloa crus-galli; conditions: 1000 g ai/ha, scale 0 to 100 (0 no effect, 100 complete control)
In short: (§4)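 Postemergence plants were sprayed with formulated test chemicals at 2 to 18 cm height (1- to 4-leaf stage); paddy species were grown to the 2-leaf stage. After 13 to 15 days in a greenhouse, injury was rated visually against untreated controls on a 0–100 scale (0 = no effect, 100 = complete control).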

lambsquarters = assay: Test B pre-/postemergence herbicide test; assay type: in vivo, Chenopodium album; conditions: for Lambsquarters plant response rating: postemergence
In short: as §1

blackgrass = assay: Test B postemergence herbicide test; assay type: in vivo, Alopecurus myosuroides; conditions: postemergence
In short: as §4

[7] = test system: small flower umbrella sedge; assay: Test B flooded paddy test; assay type: in vivo, Cyperus difformis; conditions: 1000 g ai/ha, scale 0 to 100 (0 no effect, 100 complete control)
In short: as §4

wild oat = assay: Test B postemergence herbicide test; assay type: in vivo, Avena fatua; conditions: postemergence
In short: (§5)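 Read-out: visual comparison with controls, scored 0 to 100, where 100 means complete control and 0 no effect. Formulated chemicals were applied postemergence to plants 2–18 cm tall (1- to 4-leaf), or to flooded-paddy plants at the 2-leaf stage, then held 13 to 15 days under glass.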

large crabgrass [8] = assay: Test A pre-/postemergence herbicide test; assay type: in vivo, Digitaria sanguinalis
In short: as §3

barnyardgrass [9] = assay: Test B pre-/postemergence herbicide test; assay type: in vivo, Echinochloa crus-galli; conditions: for Barnyardgrass plant response rating: postemergence
In short: as §2

morningglory [10] = assay: Test B pre-/postemergence herbicide test; assay type: in vivo, Ipomoea coccinea; conditions: for Morningglory plant response rating: postemergence
In short: as §2

rice [11] = assay: Test B flooded paddy test; assay type: in vivo, Oryza sativa; conditions: 1000 g ai/ha, scale 0 to 100 (0 no effect, 100 complete control)
In short: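 Treated at 2-leaf (paddy) or 1–4-leaf, 2–18 cm (postemergence); greenhouse 13–15 d; visual score vs control, 0 none to 100 complete control; dash = not tested.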

Surinam grass = assay: Test B pre-/postemergence herbicide test; assay type: in vivo, Urochloa decumbens; conditions: for Surinam Grass plant response rating: postemergence
In short: as §1

giant foxtail [12] = assay: Test A pre-/postemergence herbicide test; assay type: in vivo, Setaria faberi
In short: as §3

wheat = assay: Test B postemergence herbicide test; assay type: in vivo, Triticum aestivum; set-up: key to Wheat plant response rating: 0 = no effect, 100 = complete control; conditions: postemergence
In short: as §5

corn = assay: Test B pre-/postemergence herbicide test; assay type: in vivo, Zea mays; conditions: for Corn plant response rating: postemergence
In short: as §1

ducksalad = assay: Test B flooded paddy test; assay type: in vivo, Heteranthera limosa; conditions: 1000 g ai/ha, scale 0 to 100 (0 no effect, 100 complete control)
In short: as §4

velvetleaf [13] = assay: Test B pre-/postemergence herbicide test; assay type: in vivo, Abutilon theophrasti; conditions: for Velvetleaf plant response rating: postemergence
In short: as §1

velvetleaf [14] = assay: Test A pre-/postemergence herbicide test; assay type: in vivo, Abutilon theophrasti
In short: as §3

[15] = 125 g ai/ha, 0 = no effect, 100 = complete control, preemergence
[16] = 500 g ai/ha, visual rating, 0 = no effect, 100 = complete control, preemergence
[17] = 125 g ai/ha, visual rating, scale 0 (no effect) to 100 (complete control)
[18] = 500 g ai/ha, scale 0 to 100, 0 is no effect, 100 is complete control
[19] = Postemergence, 500 g ai/ha, 0 to 100 scale, 0 no effect, 100 complete control
[20] = Postemergence, 2000 g ai/ha, 0 to 100 scale, 0 no effect, 100 complete control
[21] = Preemergence, 2000 g ai/ha, visual rating, 0 to 100 scale (0 no effect, 100 complete control)
[22] = preemergence, 500 g ai/ha, visual injury, 0 to 100 scale (0 no effect, 100 complete control)

Structure (SMILES): CCn1nc(C(C)(C)C)cc1C(=O)Nc1ccnc(C(=O)NCCF)c1 [Compound 284]
- Foxtail, Giant plant response rating (0 to 100 scale) (giant foxtail [1]; [15]): 0
- Plant response rating, Foxtail, Giant (giant foxtail [1]; [16]): 10
- Foxtail, Giant plant response rating (giant foxtail [1]; [17]): 0
- Foxtail, Giant plant response rating (giant foxtail [1]; [18]): 0
- Pigweed plant response rating (0 to 100 scale) (pigweed; [15]): 90
- Plant response rating, Pigweed (pigweed; [16]): 100
- Pigweed plant response rating (pigweed; [17]): 60
- Pigweed plant response rating (pigweed; [18]): 70
- Crabgrass, Large plant response rating (0 to 100 scale) (large crabgrass [2]; [15]): 0
- Plant response rating, Crabgrass, Large (large crabgrass [2]; [16]): 90
- Crabgrass, Large plant response rating (large crabgrass [2]; [17]): 0
- Crabgrass, Large plant response rating (large crabgrass [2]; [18]): 10
- Cocklebur plant response rating (0 to 100 scale) (cocklebur; [15]): 0
- Plant response rating, Cocklebur (cocklebur; [16]): 0
- Cocklebur plant response rating (cocklebur; [17]): 0
- Cocklebur plant response rating (cocklebur; [18]): 0
- Pigweed plant response rating (redroot pigweed; [19]): 95
- Plant response rating, Pigweed (redroot pigweed; [20]): 100
- Pigweed plant response rating (redroot pigweed; [21]): 100
- Pigweed plant response rating (redroot pigweed; [22]): 85
- Rice plant response rating (0 to 100 scale) (rice [3]; 125 g ai/ha): 0
- Plant response rating, Rice (rice [3]; 500 g ai/ha, visual rating): 20
- Barnyardgrass plant response rating (barnyardgrass [4]; [19]): 30
- Plant response rating, Barnyardgrass (barnyardgrass [4]; [20]): 60
- Barnyardgrass plant response rating (barnyardgrass [4]; [21]): 85
- Barnyardgrass plant response rating (barnyardgrass [4]; [22]): 10
- Morningglory plant response rating (morningglory [5]; [19]): 10
- Plant response rating, Morningglory (morningglory [5]; [20]): 15
- Morningglory plant response rating (morningglory [5]; [21]): 5
- Morningglory plant response rating (morningglory [5]; [22]): 0
- Barnyardgrass plant response rating (barnyardgrass [6]): 30
- Lambsquarters plant response rating (0 to 100 scale) (lambsquarters; [15]): 90
- Plant response rating, Lambsquarters (lambsquarters; [16]): 100
- Lambsquarters plant response rating (lambsquarters; [17]): 50
- Lambsquarters plant response rating (lambsquarters; [18]): 50
- Blackgrass plant response rating (blackgrass; [17]): 20
- Blackgrass plant response rating (blackgrass; [18]): 40
- Sedge, Umbrella plant response rating [7]: 0
- Oat, Wild plant response rating (wild oat; [17]): 10
- Oat, Wild plant response rating (wild oat; [18]): 30
- Crabgrass, Large plant response rating (large crabgrass [8]; [19]): 20
- Plant response rating, Crabgrass, Large (large crabgrass [8]; [20]): 20
- Crabgrass, Large plant response rating (large crabgrass [8]; [21]): 80
- Crabgrass, Large plant response rating (large crabgrass [8]; [22]): 15
- Barnyardgrass plant response rating (0 to 100 scale) (barnyardgrass [9]; [15]): 0
- Plant response rating, Barnyardgrass (barnyardgrass [9]; [16]): 80
- Barnyardgrass plant response rating (barnyardgrass [9]; [17]): 0
- Barnyardgrass plant response rating (barnyardgrass [9]; [18]): 0
- Morningglory plant response rating (0 to 100 scale) (morningglory [10]; [15]): 0
- Plant response rating, Morningglory (morningglory [10]; [16]): 0
- Morningglory plant response rating (morningglory [10]; [17]): 0
- Morningglory plant response rating (morningglory [10]; [18]): 0
- Rice plant response rating (rice [11]): 10
- Surinam Grass plant response rating (0 to 100 scale) (Surinam grass; [15]): 0
- Plant response rating, Surinam Grass (Surinam grass; [16]): 10
- Surinam Grass plant response rating (Surinam grass; [17]): 0
- Surinam Grass plant response rating (Surinam grass; [18]): 20
- Foxtail, Giant plant response rating (giant foxtail [12]; [19]): 20
- Plant response rating, Foxtail, Giant (giant foxtail [12]; [20]): 35
- Foxtail, Giant plant response rating (giant foxtail [12]; [21]): 55
- Foxtail, Giant plant response rating (giant foxtail [12]; [22]): 20
- Wheat plant response rating (wheat; [17]): 20
- Wheat plant response rating (wheat; [18]): 30
- Corn plant response rating (0 to 100 scale) (corn; [15]): 0
- Plant response rating, Corn (corn; [16]): 0
- Corn plant response rating (corn; [17]): 0
- Corn plant response rating (corn; [18]): 10
- Ducksalad plant response rating (ducksalad): 70
- Velvetleaf plant response rating (0 to 100 scale) (velvetleaf [13]; [15]): 0
- Plant response rating, Velvetleaf (velvetleaf [13]; [16]): 60
- Velvetleaf plant response rating (velvetleaf [13]; [17]): 0
- Velvetleaf plant response rating (velvetleaf [13]; [18]): 0
- Velvetleaf plant response rating (velvetleaf [14]; [19]): 30
- Plant response rating, Velvetleaf (velvetleaf [14]; [20]): 35
- Velvetleaf plant response rating (velvetleaf [14]; [21]): 40
- Velvetleaf plant response rating (velvetleaf [14]; [22]): 10
